One molecule from patent publication US20190125753A1, “COMPOUNDS AND METHODS FOR INCREASING HEMATOPOIESIS” (University of Southern California, priority 2016, published 2019) can be followed below.

This assay deals with bone marrow cells. Kind of assay: Brief (4 h) incubation of bone marrow cells, 14 days culture, FACS. Format: cell-based, mouse. On the procedure: Bone marrow cells were treated with DMSO or YH250 (0.5 μM) for 4 hours, then the compound was removed and the cells cultured in QBSF-58 medium for 14 days with 10 ng/ml of SCF, TPO, Flt3 ligand, and IL-6. At the end of culture, cells were recovered and analyzed for LSK cells with FACS.
In a further study, female CD45.1 mice bone marrow cells were incubated with DMSO, or YH249 (0.5 μM) or YH250 (0.5 μM) for 4 hrs in QBSF-58 media, then 2×10^4 cells were plated in QBSF-58 medium containing SCF, TPO, Flt3 and IL-6 (10 ng/ml for each) for 14 days. Cells were then recovered from plate for FACS analysis. […] Correspondingly, there are higher LSK cells (52%, 60% and 70% respectively for DMSO, YH249 and YH250). From every 10,000 analyzed cells, LSKCD34negt cell numbers are 437, 663 and 2051 for DMSO, YH249 and YH250 treated cells, respectively.

The mark [1] stands for this setting: 0.5 μM 4 hours, 14 days in QBSF-58 with SCF, TPO, Flt3 ligand, IL-6.

For `COc1cccc(CNC(=O)N2C3CN(Cc4cc(Cl)cc(Cl)c4N(C)C)C(=O)[C@H](Cc4ccc(O)cc4)N3C(=O)CN2C)c1OC` (some centres unmarked) [YH250], under setting [1], the “percentage of LSK cells vs DMSO” value is reported as “significantly higher” and the “percentage of Lineage negative cells vs DMSO” value is on record as “significantly higher”. The same molecule registered a lineage negative cell (0.5 μM 4 hrs, 14 days culture, DMSO 9%) of 33%. Besides, where the note is “0.5 μM 4 hrs, 14 days culture, DMSO 52%”, the LSK cells was 70%. This molecule also had an LSKCD34negt cell numbers (from every 10,000 analyzed cells, 0.5 μM 4 hrs, 14 days culture, DMSO 437) of 2051.
